Here are results for 7 molecules from publication PMC7036909, “Discovery of Selective SIRT2 Inhibitors as Therapeutic Agents in B-Cell Lymphoma and Other Malignancies” (Molecules, 2020).

As usually defined, the IC50 is the concentration at which inhibition is half-maximal. Usually inhibition stands for the change of the read-out against control, counted positive when it falls.

In series [1] the test system is OCI-Ly8-LAM-53 (OCI, DLBCL) cells. Nature of the series: Cell viability (CellTiter-Glo), OCI. It is filed as cell-based. The following applies: 72 h, cellular ATP; read-out: OCI LC50. As to the method:
(§1) With selective SIRT2 inhibitors in hand, we proceeded to evaluate cytotoxicity of our compounds in Daudi, Raji (Burkitt lymphoma) and OCI-Ly8-LAM-53 (OCI, a representative of several Diffuse Large B-Cell Lymphoma lines; DLBCL) cell lines. Briefly, cells were plated in 96-well plates and treated with inhibitors at desired concentrations for 72 h. Cellular viability was determined by measuring the amount of cellular ATP using CellTiter-Glo assay kit (Promega) and normalized against DMSO-treated controls. […] Selected inhibitors were further evaluated in an expanded panel of cancer cell lines including breast cancer (MCF-7 and MDA-MB231), prostate cancer (PC-3) and glioblastoma multiforme (U-251). […] However, the trend in potency as a function of the structure is consistent with the results obtained against lymphoma cell lines. […] . Cell lines were obtained from ATCC (Manassas, VA, USA) and were grown under standard conditions as recommended. For viability assays, 3000 cells per well were dispensed into 96-well plates and treated with test compounds (final DMSO concentration 0.25%). Cells were incubated with test compounds (or DMSO controls) for 72 h or 5 days as noted at 37 °C in 5% CO2 and viability was determined using the CellTiter-Glo Assay (Promega Corp.) according to manufacturer’s instructions.
In general terms: ATP-based viability assays read luminescence as a measure of living cells.

The target in series [2] is T1, SIRT1 (Homo sapiens, UniProt Q96EB6).
T1 sequence (Q96EB6 1-747): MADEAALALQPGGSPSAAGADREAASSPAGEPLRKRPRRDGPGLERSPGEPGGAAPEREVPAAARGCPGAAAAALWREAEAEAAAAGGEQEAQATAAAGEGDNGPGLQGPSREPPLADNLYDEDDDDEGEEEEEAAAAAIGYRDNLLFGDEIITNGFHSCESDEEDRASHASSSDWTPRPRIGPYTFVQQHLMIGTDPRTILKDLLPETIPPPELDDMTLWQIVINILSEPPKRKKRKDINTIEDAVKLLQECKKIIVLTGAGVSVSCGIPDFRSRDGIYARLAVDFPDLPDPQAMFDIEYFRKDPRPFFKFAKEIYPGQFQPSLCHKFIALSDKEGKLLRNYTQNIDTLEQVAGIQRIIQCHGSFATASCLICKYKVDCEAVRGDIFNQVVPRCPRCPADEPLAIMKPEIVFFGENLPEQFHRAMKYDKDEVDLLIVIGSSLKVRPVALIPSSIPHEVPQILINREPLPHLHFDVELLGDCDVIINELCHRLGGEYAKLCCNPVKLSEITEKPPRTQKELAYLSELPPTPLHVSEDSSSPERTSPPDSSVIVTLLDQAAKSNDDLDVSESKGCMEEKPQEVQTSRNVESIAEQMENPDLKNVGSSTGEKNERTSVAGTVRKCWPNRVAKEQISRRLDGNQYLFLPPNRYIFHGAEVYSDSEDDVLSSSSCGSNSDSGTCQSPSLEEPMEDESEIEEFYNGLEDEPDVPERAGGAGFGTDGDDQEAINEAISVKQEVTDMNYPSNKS
Details: purchased Cayman Chemical. The note with it: cited from earlier work.

Series [3] concerns the target T2, SIRT2 (Homo sapiens, UniProt Q8IXJ6).
T2 sequence (Q8IXJ6 1-389): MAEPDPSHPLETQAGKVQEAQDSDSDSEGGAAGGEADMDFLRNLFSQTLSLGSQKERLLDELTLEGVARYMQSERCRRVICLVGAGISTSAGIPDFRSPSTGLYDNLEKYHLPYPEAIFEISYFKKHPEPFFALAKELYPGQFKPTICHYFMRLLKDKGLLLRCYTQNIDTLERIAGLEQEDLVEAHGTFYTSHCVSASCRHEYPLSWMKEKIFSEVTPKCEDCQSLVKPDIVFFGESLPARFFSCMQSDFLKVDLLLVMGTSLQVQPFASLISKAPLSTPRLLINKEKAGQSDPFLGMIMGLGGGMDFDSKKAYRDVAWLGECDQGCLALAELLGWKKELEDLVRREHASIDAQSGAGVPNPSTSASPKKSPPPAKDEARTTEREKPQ
Details: purchased Cayman Chemical. The note with it: abstract and Figure 1, authors' previous work; cited from earlier work.

Series [4] concerns the target T3, SIRT3 (Homo sapiens, UniProt Q9NTG7).
T3 sequence (Q9NTG7 1-399): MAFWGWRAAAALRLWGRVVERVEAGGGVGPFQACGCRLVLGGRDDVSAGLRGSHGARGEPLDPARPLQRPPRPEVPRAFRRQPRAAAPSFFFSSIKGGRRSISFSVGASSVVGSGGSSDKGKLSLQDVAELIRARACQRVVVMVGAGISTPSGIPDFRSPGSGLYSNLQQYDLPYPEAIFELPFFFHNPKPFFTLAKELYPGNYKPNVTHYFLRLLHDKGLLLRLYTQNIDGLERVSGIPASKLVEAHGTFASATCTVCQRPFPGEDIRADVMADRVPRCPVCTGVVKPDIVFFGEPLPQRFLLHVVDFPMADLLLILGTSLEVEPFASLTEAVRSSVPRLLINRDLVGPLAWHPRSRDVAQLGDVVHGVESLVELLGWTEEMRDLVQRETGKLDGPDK
The arrangement: purchased Cayman Chemical. The following applies: Figure 1, authors' previous work; cited from earlier work.

For series [5], the system named is Daudi (Burkitt lymphoma) cells. The series is described as follows: Cell viability (CellTiter-Glo), Daudi. The format is cell-based. The following applies: Homo sapiens, 72 h, cellular ATP, read-out: Daudi LC50. As to the method: as §1
The test system of series [6] is Raji (Burkitt lymphoma) cells. Nature of the series: Cell viability (CellTiter-Glo), Raji. It is filed as cell-based. The following applies: Homo sapiens, 72 h, cellular ATP, read-out: Raji LC50. As to the method:
as §1

The subject of series [7] is MCF-7 breast cancer cells. Nature of the series: Cell viability (CellTiter-Glo), MCF-7. The format is cell-based. The note with it: Homo sapiens, MCF7; cellular ATP; read-out: MCF7 LC50. As for the experimental part: as §1
The test system of series [8] is MDA-MB231 breast cancer cells. The series is described as follows: Cell viability (CellTiter-Glo), MDA-MB231. The following applies: Homo sapiens, MDA-MB-231; cellular ATP; read-out: MDA-MB231 LC50. The format is cell-based. As to the method: as §1
Series [9] has as its system PC-3 prostate cancer cells. The series is described as follows: Cell viability (CellTiter-Glo), PC-3. The format is cell-based. The following applies: cellular ATP; read-out: PC3 LC50. As for the experimental part: as §1
For series [10], the system named is U-251 glioblastoma multiforme cells. The series is described as follows: Cell viability (CellTiter-Glo), U-251. The format is cell-based. The note with it: Homo sapiens, cellular ATP, read-out: U251 LC50. As for the experimental part:
as §1

Series [11] deals with T1, SIRT1. Nature of the series: SIRT-Glo enzyme inhibition assay, SIRT1. The note with it: for inhibition at 50 µM: read-out: SIRT1 percentage inhibition at 50 µM compound, 50 µM compound; for selectivity for SIRT2 over SIRT1: SIRT2 versus SIRT1.
Series [12] concerns the target T2, SIRT2. The series is described as follows: SIRT-Glo enzyme inhibition assay, SIRT2. The note with it: for IC50: SIRT2 IC50; for inhibition at 50 µM: read-out: SIRT2 percentage inhibition at 50 µM compound, 50 µM compound.
Series [13] deals with T3, SIRT3. Nature of the series: SIRT-Glo enzyme inhibition assay, SIRT3. The note with it: for inhibition at 50 µM: read-out: SIRT3 percentage inhibition at 50 µM compound, 50 µM compound; for selectivity for SIRT2 over SIRT3: SIRT2 versus SIRT3.
The subject of series [14] is α-tubulin acetylation in NCI-H460 cells. The series is described as follows: α-tubulin acetylation by western blot. The format is cell-based. The note with it: NCI-H460, 0, 5 and 10 µM, 18 h, versus vehicle. As to the method: To ascertain SIRT2 inhibitory activity of our newly synthesized compounds in a cellular context, we examined acetylation level of α-tubulin, a known SIRT2 substrate. Non-small cell lung cancer cell line NCI-H460 was treated with compound 55 at 0, 5, and 10 µM for 18 h. Cells were harvested, lysed and α-tubulin acetylation was analyzed by western blot (Figure 2).
Figure 2 Determination of α-tubulin acetylation in NCI-H460 cells by western blot following 18 h treatment with 55. GAPDH used as loading control.

Series [15] deals with OCI DLBCL cells. The series is described as follows: Annexin V staining assay.
The test system of series [16] is cleaved PARP in OCI DLBCL cells. The series is described as follows: PARP cleavage by western blot. The following applies: 24 h. On the technique in general: Immunoblotting shows a protein as a band on a membrane.

Where two headings read alike, the source gives them in different places.

With `N#C/C(=C\c1ccc(-c2cc(Cl)ccc2Cl)o1)C(=O)Nc1cccc2ncccc12` [AGK2, reference compound], the CC50 in series [1] was found to be 73.2 µM. Further, in series [2], the IC50 was above 50 µM.

As for `COc1cc2ccccc2c(Cc2c(-c3ccc(C)cc3)[nH][nH]c2=O)c1O` [Compound 2], the IC50 is 37 µM in series [2] (abstract and Figure 1, authors' previous work); above 200 µM in series [3]; above 200 µM in [4].

For `O=C(NCCO)C(Cc1c(O)ccc2cc(Br)ccc12)C(=O)c1ccc(Br)cc1` (stereo not shown) [Compound 48, 2-[(6-Bromo-2-hydroxynaphthalen-1-yl)methyl]-3-(4-bromophenyl)-N-(2-hydroxyethyl)-3-oxopropanamide], the CC50 in series [5] came to 10.5 µM; in series [6], 10 µM; in series [1] it was 5 µM; in [7], 11.8 µM; in series [8], 14.7 µM; in series [9], 11.8 µM. Besides, in [10], the CC50 came out at 15.8 µM. Further, the inhibition at 50 µM in series [11] came out at 18%; in series [12], 96%; in series [13], 29%. The same molecule had an IC50 in [12] of 0.52 µM.

`O=C(NCCO)C(Cc1c(O)ccc2cc(Br)ccc12)C(=O)c1ccc(C(F)(F)F)cc1` (stereo not shown) [Compound 49]: the CC50 in series [5] came to 12 µM; in [6], 16.5 µM; in series [1], 13.1 µM; in [7], 20.2 µM; in [8], 23.5 µM; in series [9], 18.4 µM. Besides, the CC50 in series [10] was 15.7 µM. Besides, the “selectivity for SIRT2 over SIRT1” value in series [11] was above 400 fold. Besides, the inhibition at 50 µM was found to be 15% in series [11], 99% in [12] and 27% in series [13]. For the same molecule, the midpoint of inhibition in series [12], the IC50, lay at 0.27 µM. In addition, the “selectivity for SIRT2 over SIRT3” value in series [13] is given as above 800 fold.

For the molecule `CNC(=O)CCNC(=O)C(Cc1c(O)ccc2cc(Br)ccc12)C(=O)c1ccc(Cl)cc1` (stereo not shown) [Compound 54, 2-[(6-Bromo-2-hydroxynaphthalen-1-yl)methyl]-3-(4-chlorophenyl)-N-[2-(methylcarbamoyl)ethyl]-3-oxo-propanamide], the CC50 in series [5] was 15.8 µM; in [6] it was 18.5 µM; in series [1] it was 11.2 µM; in [7] it was 18 µM; in series [8], 23.8 µM; in [9] it was 16.5 µM. Also, the CC50 in [10] is 17.3 µM. Besides, the inhibition at 50 µM in series [11] is 12%; in series [12], 99%; in series [13], 6%. In addition, in [12], the IC50 was 0.59 µM.

For `CNC(=O)CCNC(=O)C(Cc1c(O)ccc2cc(Br)ccc12)C(=O)c1ccc(C(F)(F)F)cc1` (stereo not shown) [Compound 55, 2-[(6-Bromo-2-hydroxynaphthalen-1-yl)methyl]-N-[2-(methylcarbamoyl)ethyl]-3-oxo-3-[4-(trifluoromethyl)-phenyl]propenamide], the CC50 in series [5] came out at 11.9 µM; in series [6], 11.9 µM; in series [1], 24.9 µM; in [7] it was 21.6 µM; in series [8] it was 22.8 µM; in series [9], 17.2 µM. Besides, the CC50 in series [10] stood at 21.1 µM. The α-tubulin acetylation result in series [14] was “dose-dependent increase in tubulin acetylation”. This molecule also displayed an IC50 in series [12] of 0.25 µM. Moreover, the inhibition at 50 µM in [12] was 100%; in series [13], below 25%. Besides, in series [13], the “SIRT3 percentage inhibition at 50 µM compound” value is reported as 20%.

`CNC(=O)C(Cc1c(O)ccc2cc(Br)ccc12)C(=O)c1ccc(Br)cc1` (stereo not shown) [Compound 56, 2-[(6-Bromo-2-hydroxynaphthalen-1-yl)methyl]-3-(4-bromophenyl)-N-methyl-3-oxopropanamide]: the CC50 in series [5] worked out at 7.1 µM. For the same molecule, in series [6], the CC50 turned out to be 9.1 µM. Moreover, in series [1], the CC50 worked out at 5.7 µM. Moreover, in series [15] (10 µM), the “Q1 (necrotic cell death) cell population” value came to 4.6%, the “Q2 (apoptotic cells) cell population” value stood at 47.2%, the Q3 cell population is on record as 39.8% and the Q4 cell population is recorded as 8.4%. Also, in series [15] (25 µM), the “Q1 (necrotic cell death) cell population” value was 3.8%, the “Q2 (apoptotic cells) cell population” value is on record as 75.8%, the Q3 cell population came to 13.5% and the Q4 cell population was 6.9%. The PARP cleavage result in series [16] was “dose-dependent PARP cleavage”. In addition, in series [11], the “selectivity for SIRT2 over SIRT1” value is above 400 fold. Moreover, in series [12], 0.78 µM corresponded to half-maximal inhibition (IC50) and the inhibition at 50 µM was 95%. Further, in series [13], the “SIRT3 percentage inhibition at 50 µM compound” value is given as 22%, the “selectivity for SIRT2 over SIRT3” value was above 800 fold and the inhibition at 50 µM is below 25%.
